According to patent publication US20250340529A1, “Heterocyclic Compounds as Immunomodulators of PD-L1 Interactions” (Ascletis BioScience Co., Ltd, priority 2021, published 2025):

How the values were obtained:
PD-1/PD-L1 = PD-1/PD-L1 (Homo sapiens (Human), UniProt Q9NZQ7); assay: PD-1/PD-L1 Homogeneous Time-Resolved Fluorescence (HTRF) binding assay; conditions: 3 nM PD1, 10 nM PD-L1, 25° C., PBS pH 7.4
Description: PD-1/PD-L1 Homogeneous Time-Resolved Fluorescence (HTRF) Binding Assay
The assays were conducted in a standard black 384-well polystyrene plate with a final volume of 20 μL. Inhibitors were first serially diluted in DMSO and then added to the plate wells before the addition of other reaction components. The final concentration of DMSO in the assay was 1%. The assays were carried out at 25° C. in the PBS buffer (pH 7.4) with 0.05% Tween-20 and 0.1% BSA. Recombinant human PD-L1 protein (19-238) with a Histag at the C-terminus was purchased from AcroBiosystems (PD1-H5229). Recombinant human PD-1 protein (25-167) with Fe tag at the C-terminus was also purchased from AcroBiosystems (PD1-H5257). PD-L1 and PD-1 proteins were diluted in the assay buffer and 10 μL was added to the plate well. Plates were centrifuged and proteins were preincubated with inhibitors for 40 minutes. The incubation was followed by the addition of 10 μL of HTRF detection buffer supplemented with Europium cryptate-labeled anti-human IgG (PerkinElmer-AD0212) specific for Fe and anti-His antibody conjugated to SureLight®-Allophycocyanin (APC, PerkinElmer-AD0059H). After centrifugation, the plate was incubated at 25° C. for 60 min. before reading on a PHERAstar FS plate reader (665 nm/620 nm ratio). Final concentrations in the assay were—3 nM PD1, 10 nM PD-L1, 1 nM europium anti-human IgG and 20 nM anti-His-Allophycocyanin. IC50 determination was performed by fitting the curve of percent control activity versus the log of the inhibitor concentration.

PD-L1/CHO-K1 cells = PD-L1/CHO-K1 cells (Homo sapiens (Human), UniProt Q9NZQ7); assay: PD-L1 internalization (FACS, PD-L1/CHO-K1 cells); assay type: cell-based; conditions: % activation of PD-L1 internalization = 1 − PD-L1 signal; 17 hours incubation
Sequence of PD-L1/CHO-K1 cells (Q9NZQ7 19-290): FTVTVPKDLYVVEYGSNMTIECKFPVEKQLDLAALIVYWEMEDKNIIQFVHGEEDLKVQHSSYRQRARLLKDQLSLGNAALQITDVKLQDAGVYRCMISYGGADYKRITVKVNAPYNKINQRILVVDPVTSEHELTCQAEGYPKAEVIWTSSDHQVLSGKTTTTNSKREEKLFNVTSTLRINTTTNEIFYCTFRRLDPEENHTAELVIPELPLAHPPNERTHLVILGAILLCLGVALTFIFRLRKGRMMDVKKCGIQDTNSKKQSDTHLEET
Description: Day 1. Seeding cells: Digest the PD-L1/CHO-K1 cells by trypsin in the flask, then counting the cell number and diluted to 1×10^5 cells/ml. Seeding cells to 6 well plate (Corning, #3516), 2 mL/well. The plates were incubated at 37° C., […] incubator for 24 hours.
Day 2. Preparing compounds and treated cells: Dilute GLC01-258 from 15 mM to 0.5 mM by using DMSO, and 15 mM compound were serial diluted from 15 mM˜15 nM by DMSO, Then 500 times dilute the compounds by using assay buffer. Prepare 0.2% DMSO in assay buffer used for Vehicle control and low control. Take out the plates, aspirated the medium and thrown away. Adding 2 mL of the diluted compounds, vehicle control and low control to corresponding wells. Then incubated the plates for 17 hours at 37° C., 5% CO2 incubator.
Day 3. Preparing samples for FACS: After 17 hours incubation, discarded medium and washed by the PBS. Cells in each well were Digested by trypsin. Centrifuge and discard the supernatant, then wash the cells by DPBS (Ca^2+, Mg^2+ free) for twice. 10 fold dilute the antibody (PE-conjugated mouse anti-human CD274) by DPBS, then adding the staining solution to compounds treated samples and vehicle control sample. The low control only add DPBS without antibody. Incubate the plates at room temperature for 20 minutes and protect from light. After 20 minutes, wash the samples by DPBS for twice. Then centrifuge and discard the supernatant. Resuspend cells by 300 uL DPBS and transfer the samples to 5 mL Polystryrene Round-Bottom Tube (Falcon, #352054), then tested by BD FACSCanto. […].
Set the PD-L1 signal of vehicle control as 100%, PD-L1 signal of Low control as 0%. Then calculate the compound treated samples' PD-L1 signal
0% PD-L1 signal: Low control which stained without anti-CD274
100% PD-L1 Signal: vehicle control which stained with anti-CD274
The % activation of PD-L1 Internalization=1−PD-L1 signal of compound.

Sequence of PD-1/PD-L1 (Q9NZQ7 19-238): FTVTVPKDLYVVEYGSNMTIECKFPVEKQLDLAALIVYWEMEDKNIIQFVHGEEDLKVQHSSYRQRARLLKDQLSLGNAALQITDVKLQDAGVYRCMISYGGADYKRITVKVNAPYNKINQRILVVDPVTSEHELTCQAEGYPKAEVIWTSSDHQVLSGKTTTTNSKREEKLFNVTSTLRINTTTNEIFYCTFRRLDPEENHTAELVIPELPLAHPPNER

SMILES	IC50 (PD-1/PD-L1)	Internalization (PD-L1/CHO-K1 cells)
O=C1CC[C@@H](CN2C(=O)COc3cc(-c4cccc(-c5cccc(-c6ccc7c(c6)OCC(=O)N7C[C@@H]6CCC(=O)N6)c5Cl)c4Cl)ccc32)N1 [Compound 338]	1.46 nM	6.80%
O=C1CC[C@@H](CN2C(=O)CNc3cc(-c4cccc(-c5cccc(-c6ccc7c(c6)NCC(=O)N7C[C@@H]6CCC(=O)N6)c5Cl)c4Cl)ccc32)N1 [Compound 363]	2.16 nM	5.50%
O=C1CC(CN2C(=O)COc3cc(-c4cccc(-c5cccc(-c6ccc7c(c6)OCC(=O)N7CC6CNC(=O)C6)c5Cl)c4Cl)ccc32)CN1 (stereo not shown) [Compound 373]	3.79 nM	3.20%
O=C1CC[C@@H](CN2C(=O)COc3cc(-c4cccc(-c5cccc(-c6cc7c(cc6F)N(C[C@@H]6CCC(=O)N6)C(=O)CO7)c5Cl)c4Cl)c(F)cc32)N1 [Compound 388]	1.1 nM	6.10%
O=C1CC[C@@H](CN2C(=O)COc3c2ccc(-c2cccc(-c4cccc(-c5ccc6c(c5F)OCC(=O)N6C[C@@H]5CCC(=O)N5)c4Cl)c2Cl)c3F)N1 [Compound 395]	6.26 nM	2.50%
CN1CC(=O)N(C[C@@H]2CCC(=O)N2)c2ccc(-c3cccc(-c4cccc(-c5ccc6c(c5)N(C)CC(=O)N6C[C@@H]5CCC(=O)N5)c4Cl)c3Cl)cc21 [Compound 402]	1.98 nM	2.40%
O=C1COc2cc(-c3cccc(-c4cccc(-c5ccc6c(c5)OCC(=O)N6CCNCCO)c4Cl)c3Cl)ccc2N1CCNCCO [Compound 445]	5.01 nM	20.50%
O=C1CC[C@@H](CNCCN2C(=O)COc3cc(-c4cccc(-c5cccc(-c6ccc7c(c6)OCC(=O)N7CCNC[C@@H]6CCC(=O)N6)c5Cl)c4Cl)ccc32)N1 [Compound 449]	3.89 nM	12.20%
CN(CCN1C(=O)COc2cc(-c3cccc(-c4cccc(-c5ccc6c(c5)OCC(=O)N6CCN(C)C[C@@H]5CCC(=O)N5)c4Cl)c3Cl)ccc21)C[C@@H]1CCC(=O)N1 [Compound 460]	9.9 nM	1.90%
O=C(O)CCNCCN1C(=O)COc2cc(-c3cccc(-c4cccc(-c5ccc6c(c5)OCC(=O)N6CCNCCC(=O)O)c4Cl)c3Cl)ccc21 [Compound 468]	4.9 nM	20.90%
O=C(O)CC(O)CNCCN1C(=O)COc2cc(-c3cccc(-c4cccc(-c5ccc6c(c5)OCC(=O)N6CCNCC(O)CC(=O)O)c4Cl)c3Cl)ccc21 (stereo not shown) [Compound 470]	2.28 nM	20.90%
CC(CO)(NCCN1C(=O)COc2cc(-c3cccc(-c4cccc(-c5ccc6c(c5)OCC(=O)N6CCNC(C)(CO)C(=O)O)c4Cl)c3Cl)ccc21)C(=O)O (stereo not shown) [Compound 475]	3.23 nM	31.50%
O=C1COc2cc(-c3cccc(-c4cccc(-c5ccc6c(c5)OCC(=O)N6CCN5CC[C@H](O)C5)c4Cl)c3Cl)ccc2N1CCN1CC[C@H](O)C1 [Compound 476]	5.22 nM	6.10%
O=C(O)CCNCCCN1C(=O)COc2cc(-c3cccc(-c4cccc(-c5ccc6c(c5)OCC(=O)N6CCCNCCC(=O)O)c4Cl)c3Cl)ccc21 [Compound 480]	5.48 nM	5.70%
O=C(O)C1CCN(CCN2C(=O)COc3cc(-c4cccc(-c5cccc(-c6ccc7c(c6)OCC(=O)N7CCN6CC[C@H](O)C6)c5Cl)c4Cl)ccc32)C1 (stereo partly drawn) [Compound 481, 1-(2-(7-(2,2′-dichloro-3′-(4-(2-((S)-3-hydroxypyrrolidin-1-yl)ethyl)-3-oxo-3,4-dihydro-2H-benzo[b][1,4]oxazin-7-yl)-[1,1′-biphenyl]-3-yl)-3-oxo-2,3-dihydro-4H-benzo[b][1,4]oxazin-4-yl)ethyl)pyrrolidine-3-carboxylic acid]	4.69 nM	8.70%
O=C(O)[C@@H](CO)NCCN1C(=O)COc2cc(-c3cccc(-c4cccc(-c5ccc6c(c5)OCC(=O)N6CCN[C@H](CO)C(=O)O)c4Cl)c3Cl)ccc21 [Compound 483]	6.31 nM	19.80%

SMILES	IC50 (PD-1/PD-L1)	Internalization (PD-L1/CHO-K1 cells)
O=C1COc2cc(-c3cccc(-c4cccc(-c5ccc6c(c5)OCC(=O)N6C[C@@H]5CCNC5)c4Cl)c3Cl)ccc2N1C[C@@H]1CCNC1 [Compound 503]	4.19 nM	3.50%
Cc1c(-c2ccc3c(c2)OCC(=O)N3CCN2C[C@H](O)C[C@H]2C(=O)O)cccc1-c1cccc(-c2ccc3c(c2)OCC(=O)N3CCN2C[C@H](O)C[C@H]2C(=O)O)c1C [Compound 514]	4.46 nM	–
O=C1COc2cc(-c3cccc(-c4cccc(-c5ccc6c(c5)OCC(=O)N6C[C@@H]5CCCN5)c4Cl)c3Cl)ccc2N1CCN1CC[C@H](O)C1 [Compound 515]	8.71 nM	–
CC(=O)NCCNCCN1C(=O)COc2cc(-c3cccc(-c4cccc(-c5ccc6c(c5)OCC(=O)N6C[C@@H]5CCCN5)c4Cl)c3Cl)ccc21 [Compound 516]	10.5 nM	–
Cl.O=C1CC[C@@H](CN2C(=O)COc3cc(-c4cccc(-c5cccc(-c6ccc7c(c6)OCC(=O)N7C[C@@H]6CCCN6)c5Cl)c4Cl)ccc32)N1 [Compound 517]	7.46 nM	22.80%
O=C1C[C@@H](NCCN2C(=O)COc3cc(-c4cccc(-c5cccc(-c6ccc7c(c6)OCC(=O)N7CCN[C@H]6COC(=O)C6)c5Cl)c4Cl)ccc32)CO1 [Compound 527]	9.41 nM	–
O=C1COc2cc(-c3cccc(-c4cccc(-c5ccc6c(c5)OCC(=O)N6C[C@@H]5CC(F)(F)CN5)c4Cl)c3Cl)ccc2N1C[C@@H]1CC(F)(F)CN1 [Compound 530]	76.9 nM	1.60%
O=C1COc2cc(-c3cccc(-c4cccc(-c5ccc6c(c5)OCC(=O)N6C[C@H]5CCNC5)c4Cl)c3Cl)ccc2N1C[C@H]1CCNC1 [Compound 531]	7.22 nM	–
C[C@H](NCCN1C(=O)COc2cc(-c3cccc(-c4cccc(-c5ccc6c(c5)OCC(=O)N6CCN[C@@H](C)C(=O)O)c4Cl)c3Cl)ccc21)C(=O)O [Compound 536]	4.31 nM	7.90%
O=C(O)[C@@H](O)CNCCN1C(=O)COc2cc(-c3cccc(-c4cccc(-c5ccc6c(c5)OCC(=O)N6CCNC[C@H](O)C(=O)O)c4Cl)c3Cl)ccc21 [Compound 553]	–	9.40%
O=C1COc2cc(-c3cccc(-c4cccc(-c5ccc6c(c5)OCC(=O)N6C[C@@H]5CCCCN5)c4Cl)c3Cl)ccc2N1C[C@@H]1CCCCN1 [Compound 558]	10.6 nM	–
O=C1COc2cc(-c3cccc(-c4cccc(-c5ccc6c(c5)OCC(=O)N6C[C@@H]5COCCN5)c4Cl)c3Cl)ccc2N1C[C@@H]1CCCCN1 [Compound 559]	8.98 nM	–
NC(=O)C[C@H](NCCN1C(=O)COc2cc(-c3cccc(-c4cccc(-c5ccc6c(c5)OCC(=O)N6CCN[C@@H](CC(N)=O)C(=O)O)c4Cl)c3Cl)ccc21)C(=O)O [Compound 570]	10.9 nM	–
CC(C)(C)OC[C@H](NCCN1C(=O)COc2cc(-c3cccc(-c4cccc(-c5ccc6c(c5)OCC(=O)N6CCN[C@@H](COC(C)(C)C)C(=O)O)c4Cl)c3Cl)ccc21)C(=O)O [Compound 571]	16 nM	–
O=C(O)C1CCC(=O)N1CCN1C(=O)COc2cc(-c3cccc(-c4cccc(-c5ccc6c(c5)OCC(=O)N6CCN5C(=O)CCC5C(=O)O)c4Cl)c3Cl)ccc21 (stereo not shown) [Compound 573]	287 nM	–
O=C(O)[C@H](CO)NCCN1C(=O)COc2cc(-c3cccc(-c4cccc(-c5ccc6c(c5)OCC(=O)N6CCN[C@@H](CO)C(=O)O)c4F)c3F)ccc21 [Compound 613, (2S,2'S)-2,2′-((((2,2′-difluoro-[1,1′-biphenyl]-3,3′-diyl)bis(3-oxo-2,3-dihydro-4H-benzo[b][1,4]oxazine-7,4-diyl))bis(ethane-2,1-diyl))bis(azanediyl))bis(3-hydroxypropanoic acid)]	–	4.80%
